Experimental data taken from paper PMC6347282, “Neutrophil elastase-cleaved corticosteroid-binding globulin is absent in human plasma” (The Journal of Endocrinology, 2018).

Biological target: T1, human corticosteroid-binding globulin (CBG; SERPINA6) (Homo sapiens, UniProt P08185)
T1 construct: RCL intact; no tag
T1 sequence (P08185 23-405): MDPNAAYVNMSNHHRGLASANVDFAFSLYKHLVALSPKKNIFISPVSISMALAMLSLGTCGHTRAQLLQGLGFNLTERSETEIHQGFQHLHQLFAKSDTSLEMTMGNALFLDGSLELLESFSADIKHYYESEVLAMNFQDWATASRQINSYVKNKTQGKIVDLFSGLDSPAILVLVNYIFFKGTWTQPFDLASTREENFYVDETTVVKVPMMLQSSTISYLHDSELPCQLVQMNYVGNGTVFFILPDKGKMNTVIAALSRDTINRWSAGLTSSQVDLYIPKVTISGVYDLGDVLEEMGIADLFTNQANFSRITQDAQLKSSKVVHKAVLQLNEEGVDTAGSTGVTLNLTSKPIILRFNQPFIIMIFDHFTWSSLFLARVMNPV
Test: [3H]-corticosterone saturation binding, Scatchard analysis
Settings: labelled compound; steroid-affinity purified plasma CBG, before 9G12 immunoprecipitation, ELISA-discordant sample; unreliable: unit doubtful, see left_out

Kd: 1.72 nM
SMILES: C[C@]12C[C@H](O)[C@H]3[C@@H](CCC4=CC(=O)CC[C@@]43C)[C@@H]1CC[C@@H]2C(=O)CO [corticosterone]
